Test results: PubChem BioAssay AID652030 (The Scripps Research Institute Molecular Screening Center, 2013)
The source made the active and inactive calls.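 The calls were made as follows: active = inhibition of 30% or more against both LYPLA2 panels while inhibition against LYPLA1 stays below 30%; inactive = under 30% on either LYPLA2 panel, or 30%+ on LYPLA1.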

How the values were obtained:
Test in all cases: inhibitor selectivity across mouse and human LYPLA2, LYPLA1 – cell lysate, gel-based ABPP, FP-Rh fluorescence, mouse brain membrane proteome, selectivity assay for LYPLA2 selective inhibitor project, late-stage follow-up (AID 652030)
[1] = molecular target: Acyl-protein thioesterase 2 (Homo sapiens) (UniProt O95372); settings: rhLYPLA2, at 10 µM, stronger effect = higher value
[2] = molecular target: Acyl-protein thioesterase 2 (Mus musculus) (UniProt Q9WTL7); settings: emLYPLA2, at 10 µM, stronger effect = higher value
[3] = molecular target: Acyl-protein thioesterase 1 (Mus musculus) (UniProt P97823); settings: emLYPLA1, at 10 µM, stronger effect = higher value

Acyl-protein thioesterase 2 (Homo sapiens), sequence (O95372 whole entry, looked up): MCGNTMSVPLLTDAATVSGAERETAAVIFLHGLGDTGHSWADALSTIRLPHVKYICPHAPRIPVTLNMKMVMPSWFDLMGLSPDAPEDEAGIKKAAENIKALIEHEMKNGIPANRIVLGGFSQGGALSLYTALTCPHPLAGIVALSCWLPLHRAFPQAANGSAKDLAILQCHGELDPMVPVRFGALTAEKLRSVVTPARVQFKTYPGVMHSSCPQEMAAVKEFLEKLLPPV

## O=C(NCC1CCN(c2ccc(S(=O)(=O)N3CCOCC3)cc2)CC1)c1ccc(Cl)cc1
[1]
  inhibition: 9% (inactive)
[2]
  inhibition: 9% (inactive)
[3]
  inhibition: 3% (inactive)

## O=C(c1ccc2n[nH]nc2c1)N1CCN(c2ccc(C(F)(F)F)cn2)CC1
[1]
  inhibition: 26% (inactive)
[2]
  inhibition: 35%
[3]
  inhibition: 40%

## C/C(C=NNC(=O)Cn1nnc(N)n1)=C\c1ccc(C(C)C)cc1
[1]
  inhibition: 2% (inactive)
[2]
  inhibition: 0% (inactive)
[3]
  inhibition: 0% (inactive)

## Cc1ccc(NC(=O)Cn2c([N+](=O)[O-])cnc2C)cc1Cl
[1]
  inhibition: 8% (inactive)
[2]
  inhibition: 8% (inactive)
[3]
  inhibition: 0% (inactive)

## COc1ccccc1-n1cc(C(=O)NCC(=O)N2CCN(Cc3ccccc3)CC2)c2ccccc2c1=O
[1]
  inhibition: 14% (inactive)
[2]
  inhibition: 15% (inactive)
[3]
  inhibition: 0% (inactive)

## O=C(CN1C(=O)S/C(=C\c2ccc(C(=O)O)cc2)C1=O)Nc1ccccc1
[1]
  inhibition: 8% (inactive)
[2]
  inhibition: 8% (inactive)
[3]
  inhibition: 7% (inactive)

## Cc1cccc(N2CCN(C(=O)Cc3ccc(-n4c(=O)[nH]c5ccsc5c4=O)cc3)CC2)c1C
[1]
  inhibition: 4% (inactive)
[2]
  inhibition: 0% (inactive)
[3]
  inhibition: 14% (inactive)

## COc1ccc(-n2nc(C(=O)NCC(=O)N3CCN(Cc4ccc5c(c4)OCO5)CC3)c3ccccc3c2=O)cc1OC
[1]
  inhibition: 26% (inactive)
[2]
  inhibition: 23% (inactive)
[3]
  inhibition: 0% (inactive)

## Cc1ccc(N/C=C(\C#N)c2ccc(OCCCF)cc2)cc1
[1]
  inhibition: 5% (inactive)
[2]
  inhibition: 13% (inactive)
[3]
  inhibition: 17% (inactive)

## COc1ccc(-c2noc(CCC(=O)N3CCN(c4cccc(C(F)(F)F)c4)CC3)n2)cc1
[1]
  inhibition: 2% (inactive)
[2]
  inhibition: 14% (inactive)
[3]
  inhibition: 1% (inactive)

## COc1ccc(-n2nc(C(=O)NCC(=O)N3CCN(Cc4ccccc4)CC3)c3ccccc3c2=O)c(OC)c1
[1]
  inhibition: 18% (inactive)
[2]
  inhibition: 15% (inactive)
[3]
  inhibition: 0% (inactive)

## CC(=O)c1ccc(N2CCN(C(=O)C3CCN(S(=O)(=O)c4ccc5c(c4)CC(C)N5C(=O)C4CC4)CC3)CC2)cc1 (centres undefined)
[1]
  inhibition: 10% (inactive)
[2]
  inhibition: 19% (inactive)
[3]
  inhibition: 18% (inactive)

## COc1ccc(N2CCN(C(=O)c3cc4c(s3)-c3ccccc3S(=O)(=O)C4)CC2)cc1
[1]
  inhibition: 79%
[2]
  inhibition: 74%
[3]
  inhibition: 25% (inactive)

## O=C1Nc2ccc([N+](=O)[O-])cc2OC1CCN1CCN(Cc2ccc3c(c2)OCO3)CC1 (centres undefined)
[1]
  inhibition: 9% (inactive)
[2]
  inhibition: 21% (inactive)
[3]
  inhibition: 27% (inactive)

## CS(=O)(=O)Nc1ccc(N2CCN(c3ccc(C(F)(F)F)cn3)CC2)nc1
[1]
  inhibition: 8% (inactive)
[2]
  inhibition: 1% (inactive)
[3]
  inhibition: 0% (inactive)

## CON=Cc1ccc(N2CCN(C(=O)c3cccc(C(F)(F)F)c3)CC2)c([N+](=O)[O-])c1
[1]
  inhibition: 14% (inactive)
[2]
  inhibition: 14% (inactive)
[3]
  inhibition: 14% (inactive)

## COc1ccc(OC)c(-c2cc(C(=O)Nc3c(C)nn(Cc4ccccc4C)c3C)no2)c1
[1]
  inhibition: 8% (inactive)
[2]
  inhibition: 0% (inactive)
[3]
  inhibition: 6% (inactive)

## O=C(NC(=S)Nc1sc2c(c1C(=O)O)CCCC2)c1ccccc1
[1]
  inhibition: 32%
[2]
  inhibition: 43%
[3]
  inhibition: 34%

## O=C(O)c1cccc(N2C(=O)c3ccc(Oc4ccc(Cl)cc4)cc3C2=O)c1
[1]
  inhibition: 7% (inactive)
[2]
  inhibition: 11% (inactive)
[3]
  inhibition: 25% (inactive)

## Cc1nc(-c2ccc(S(=O)(=O)N3CCCN(CCc4ccccc4)CC3)s2)cs1
[1]
  inhibition: 8% (inactive)
[2]
  inhibition: 0% (inactive)
[3]
  inhibition: 7% (inactive)

## CC(=O)c1ccc(N2CCN(C(=O)C3CCN(S(=O)(=O)c4ccc5c(c4)CC(C)N5C(C)=O)CC3)CC2)cc1 (centres undefined)
[1]
  inhibition: 8% (inactive)
[2]
  inhibition: 10% (inactive)
[3]
  inhibition: 18% (inactive)

## COc1ccc2c(c1)C(=O)[C@@H](O)[C@H](c1ccc(OC)c(Br)c1)O2
[1]
  inhibition: 20% (inactive)
[2]
  inhibition: 31%
[3]
  inhibition: 13% (inactive)

## CC(CCC(C)C)=NNC(=S)Nc1cc(S(=O)(=O)N2CCOCC2)ccc1N1CCOCC1
[1]
  inhibition: 8% (inactive)
[2]
  inhibition: 16% (inactive)
[3]
  inhibition: 19% (inactive)

## Cc1cccc(NC(=O)CN2C(=O)S/C(=C\c3cc(C)n(C)c3C)C2=O)c1
[1]
  inhibition: 51%
[2]
  inhibition: 40%
[3]
  inhibition: 9% (inactive)

## O=C(N1CCOCC1)n1nnc2ccccc21
[1]
  inhibition: 47%
[2]
  inhibition: 54%
[3]
  inhibition: 103%

## O=C(Cc1ccc([N+](=O)[O-])cc1)N1CCN(c2ccc([N+](=O)[O-])cc2)CC1
[1]
  inhibition: 0% (inactive)
[2]
  inhibition: 0% (inactive)
[3]
  inhibition: 0% (inactive)

## COc1ccccc1-c1nnc(C2CCN(S(=O)(=O)c3ccc([N+](=O)[O-])cc3)CC2)o1
[1]
  inhibition: 9% (inactive)
[2]
  inhibition: 5% (inactive)
[3]
  inhibition: 16% (inactive)

## COc1cc(/C=C2\SC(=O)N(CC(=O)Nc3cccc(C)c3)C2=O)ccc1OC(C)C(=O)O (centres undefined)
[1]
  inhibition: 58%
[2]
  inhibition: 37%
[3]
  inhibition: 28% (inactive)

## COc1ccc(N2CCN(C(=O)C3CCC(Cn4c(=S)[nH]c5ccccc5c4=O)CC3)CC2)cc1 (centres undefined)
[1]
  inhibition: 47%
[2]
  inhibition: 44%
[3]
  inhibition: 16% (inactive)

## O=[N+]([O-])c1ccc(Oc2cccc(Br)c2)c2ccncc12
[1]
  inhibition: 2% (inactive)
[2]
  inhibition: 0% (inactive)
[3]
  inhibition: 13% (inactive)

## O=C(Nc1ccc(N2CCN(C(=O)c3ccco3)CC2)c(Cl)c1)c1c(F)c(F)c(F)c(F)c1F
[1]
  inhibition: 5% (inactive)
[2]
  inhibition: 0% (inactive)
[3]
  inhibition: 18% (inactive)

## COc1cc(C=NNC(=O)C(NC(=O)c2ccccc2)c2n[nH]c(=O)c3ccccc23)ccc1OCC(N)=O (centres undefined)
[1]
  inhibition: 9% (inactive)
[2]
  inhibition: 3% (inactive)
[3]
  inhibition: 14% (inactive)

## COc1ccc(N2CCN(C(=O)c3ccc(C(C)(C)C)cc3)CC2)cc1
[1]
  inhibition: 57%
[2]
  inhibition: 47%
[3]
  inhibition: 16% (inactive)

## Cc1ccc(Oc2ccc3c(c2)C(=O)N(c2ccc(S(=O)(=O)Nc4nccs4)cc2)C3=O)cc1
[1]
  inhibition: 9% (inactive)
[2]
  inhibition: 6% (inactive)
[3]
  inhibition: 14% (inactive)

## CCCCCCCCCC(=O)Nn1cnc2ccccc2c1=O
[1]
  inhibition: 4% (inactive)
[2]
  inhibition: 12% (inactive)
[3]
  inhibition: 28% (inactive)

## Cc1ccccc1NC(=O)CN1C(=O)S/C(=C\c2cccn2-c2cccc(C(=O)O)c2)C1=O
[1]
  inhibition: 4% (inactive)
[2]
  inhibition: 13% (inactive)
[3]
  inhibition: 0% (inactive)

## COc1ccc(/C=C2\SC(=O)N(CC(=O)Nc3ccc(F)cc3)C2=O)cc1O
[1]
  inhibition: 16% (inactive)
[2]
  inhibition: 24% (inactive)
[3]
  inhibition: 15% (inactive)

## O=C(Cn1cnc2ccccc2c1=O)c1ccc(OC(F)F)cc1
[1]
  inhibition: 7% (inactive)
[2]
  inhibition: 8% (inactive)
[3]
  inhibition: 5% (inactive)

## Cc1cccc(NC(=O)CN2C(=O)S/C(=C\c3cccn3-c3cccc(C(=O)O)c3)C2=O)c1
[1]
  inhibition: 66%
[2]
  inhibition: 77%
[3]
  inhibition: 17% (inactive)

## COc1cc(C2Oc3cc(C4Oc5cc(O)cc(O)c5C(=O)C4O)ccc3OC2CO)ccc1O (centres undefined)
[1]
  inhibition: 14% (inactive)
[2]
  inhibition: 19% (inactive)
[3]
  inhibition: 10% (inactive)

## O=C(COc1ccc(Cl)cc1Cl)N1CCN(C/C=C/c2ccccc2)CC1
[1]
  inhibition: 2% (inactive)
[2]
  inhibition: 0% (inactive)
[3]
  inhibition: 0% (inactive)

## O=C(O)c1ccc(CN2C(=O)c3ccc(Oc4ccc([N+](=O)[O-])cc4)cc3C2=O)cc1
[1]
  inhibition: 7% (inactive)
[2]
  inhibition: 4% (inactive)
[3]
  inhibition: 6% (inactive)

## COc1ccc(OC)c(-c2cc(C(=O)Nc3c(C)nn(Cc4ccccc4)c3C)no2)c1
[1]
  inhibition: 3% (inactive)
[2]
  inhibition: 0% (inactive)
[3]
  inhibition: 15% (inactive)

## COc1ccc(-n2nc(C(=O)NCC(=O)N3CCN(c4cccc(Cl)c4)CC3)c3ccccc3c2=O)c(OC)c1
[1]
  inhibition: 52%
[2]
  inhibition: 41%
[3]
  inhibition: 33%

## CCN(CC)S(=O)(=O)c1ccc(N2CCOCC2)c(NC(=O)COc2ccc(C#N)cc2)c1
[1]
  inhibition: 3% (inactive)
[2]
  inhibition: 0% (inactive)
[3]
  inhibition: 12% (inactive)

## COc1ccc2c(c1)C(=O)[C@H](O)[C@@H](c1ccc(OC)c(Br)c1)O2
[1]
  inhibition: 47%
[2]
  inhibition: 55%
[3]
  inhibition: 23% (inactive)

## CC(=O)N1c2ccc(S(=O)(=O)N3CCC(C(=O)N4CCN(c5ccc(Cl)cc5)CC4)CC3)cc2CC1C (centres undefined)
[1]
  inhibition: 32%
[2]
  inhibition: 26% (inactive)
[3]
  inhibition: 3% (inactive)

## Cc1nc([N+](=O)[O-])cn1CC(=O)Nc1ccc(F)c(Cl)c1
[1]
  inhibition: 10% (inactive)
[2]
  inhibition: 15% (inactive)
[3]
  inhibition: 0% (inactive)
